Columns and labels:
[1] = test system: corn seeds; assay: Germination index of treated corn seeds by petri dish method; type: in vivo, Zea mays; conditions: 5 ml/kg of seed
Method: 7 kg of untreated clean seeds of Zea mays were collected. The seeds were mixed thoroughly in a tray to make them homogeneous. 21 sub-samples of 300 g each were prepared. A polythene bag was used for the treatment of each sample with flonicamid combinations. The formulation was used at a dosage of 5 ml/kg of seed. Before treating, the seeds were checked for their initial moisture content and minimum germination percentage. After the treatment, the treated seeds were dried in a hot air chamber having temperature of 40-43° C. to maintain their original moisture content. Table 10 discloses the germination index of corn seeds by petri dish method.

[2] = test system: corn seeds; assay: Seed treatment of corn seeds with flonicamid combinations: root length and fresh weight of seedlings; type: in vivo, Zea mays; conditions: 5 ml/kg of seed; for Fresh weight: seedlings
Method: 7 kg of untreated clean seeds of Zea mays were collected. The seeds were […] mixed thoroughly in a tray to make them homogeneous. 21 sub-samples of 300 g each were prepared. A polythene bag was used for the treatment of each sample with flonicamid combinations. The formulation was used at a dosage of 5 ml/kg of seed. Before treating, the seeds were checked for their initial moisture content and minimum germination percentage. After the treatment, the treated seeds were dried in a hot air chamber having temperature of 40-43° C. to maintain their original moisture content. Table 5 discloses the effect on root length and Table 6 discloses fresh weight of the seedlings.

| SMILES | Germination index ([1]; 4th day) | Germination index ([1]; 7th day) | Root length [2] [cm] | Fresh weight [2] [g] |
| --- | --- | --- | --- | --- |
| CNC(=O)c1cc(C#N)cc(C)c1NC(=O)c1cc(Br)nn1-c1ncccc1Cl [Cyantraniliprole 120 g/L, Cyantraniliprole] | 7 | 3 | 14.25 | 20.92 |
| COCC(=O)N(c1c(C)cccc1C)C(C)C(=O)OC (centres unmarked) [Metalayxl 50 g/L, metalaxyl] | 7 | 3 | 15 | 25.72 |
| CNC(=O)c1cc(Cl)cc(C)c1NC(=O)c1cc(Br)nn1-c1ncccc1Cl [Chlorantraniliprole 120 g/L, Chlorantraniliprole] | 7 | 1 |  |  |
| CC1=C(C(=O)Nc2ccccc2)SCCO1 [Carboxin 200 g/L, carboxin] |  |  | 14.25 |  |
| N#Cc1c[nH]cc1-c1cccc2c1OC(F)(F)O2 [Fludioxonil 25 g/L, fludioxonil] | 8 | 1 | 14 |  |
| CC(C)C1CCC(Cc2ccc(Cl)cc2)C1(O)Cn1cncn1 (centres unmarked) [Ipconazole 25 g/L, ipconazole] | 7 | 3 |  |  |
| N#CCNC(=O)c1cnccc1C(F)(F)F [Flonicamid 240 g/L, N-cyanomethyl-4-trifluoromethylnicotinamide] | 7 | 3 |  |  |
| N#CCNC(=O)c1cnccc1C(F)(F)F [Flonicamid 360 g/L, N-cyanomethyl-4-trifluoromethylnicotinamide] | 7 | 1 | 12.5 | 22.73 |
| CN1COCN(Cc2cnc(Cl)s2)/C1=N\[N+](=O)[O-] [Thiamethoxam] | 7 | 2 | 11.75 | 19.31 |

Reference: US20250008957A1, “METHOD OF IMPROVING PLANT GROWTH” (UPL LIMITED, priority 2021, published 2025)
